Target: T1, human ME3 enzyme (Homo sapiens, UniProt Q16798)
T1 sequence (Q16798 1-604): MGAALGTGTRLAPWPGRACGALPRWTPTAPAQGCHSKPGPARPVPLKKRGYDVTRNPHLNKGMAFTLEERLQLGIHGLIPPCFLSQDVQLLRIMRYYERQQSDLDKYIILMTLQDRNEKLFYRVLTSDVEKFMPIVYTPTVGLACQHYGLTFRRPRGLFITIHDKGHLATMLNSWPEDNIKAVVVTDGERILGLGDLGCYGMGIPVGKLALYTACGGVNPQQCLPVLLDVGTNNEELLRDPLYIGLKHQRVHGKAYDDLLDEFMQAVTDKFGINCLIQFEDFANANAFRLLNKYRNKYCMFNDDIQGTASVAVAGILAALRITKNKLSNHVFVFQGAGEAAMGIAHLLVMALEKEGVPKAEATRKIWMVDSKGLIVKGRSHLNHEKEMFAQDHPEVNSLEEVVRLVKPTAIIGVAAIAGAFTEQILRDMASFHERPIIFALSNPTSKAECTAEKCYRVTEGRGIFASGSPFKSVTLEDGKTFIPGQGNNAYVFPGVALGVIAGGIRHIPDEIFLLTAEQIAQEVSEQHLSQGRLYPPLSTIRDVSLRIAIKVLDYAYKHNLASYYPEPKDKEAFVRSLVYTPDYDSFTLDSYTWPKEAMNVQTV
Assay: ME3 inhibition assay (diaphorase/resazurin coupled fluorescence)
Type: biochemical
Details: 10 μM compound concentration; read-out: Malic Enzyme 3 % inhibition (10 μM)
Experimental: ME3 catalyzes the oxidative decarboxylation of malate to pyruvate with conversion of the co-factor β-NADP+ to NADPH. In the fluorescence assay, a coupled reaction is set up wherein an enzyme, Diaphorase, utilizes NADPH generated by ME3, to convert the dye resazurin to a fluorescent molecule resorufin.
The enzyme activity inhibition assay is set up in a 200 μL final reaction volume in a 96-well plate. As per the experimental design, 2 μL of the test compounds at 100× the desired concentration (10 μM) in DMSO were added to the respective wells with 178 μL of assay buffer (50 mM Tris-HCl pH 7.5, 10 mM MnCl2, 3 mM L-malate, 50 μM Resazurin and 0.025 mg/ml Diapharose). The 96-well plate was incubated on a plate shaker at room temperature for 15 minutes protected from light. The well contents were gently mixed by adding 10 μL of 20 nM human ME3 enzyme to the wells and the plate was incubated on a shaker at room temperature for 5 minutes protected from light. Suitable enzyme only and no enzyme controls were included in the experiment. The enzyme reaction was started by adding 10 μL of 1 mM D-NADP+. The reaction was gently mixed and the plate was initially left on a shaker at room temperature for ˜7 minutes protected from light. Later, the plate was incubated without shaking at room temperature for 3 hours. At the end of 3 hours, the fluorescence of the wells was measured at excitation 540 nm and emission 600 nm.

Structure (SMILES)	inhibition at 10 µM [%]
COCCN1CCC(C(=O)N2CCN(c3ccc(O)cc3)CC2)CC1 [I.7, [4-(4-Hydroxy-phenyl)-piperazin-1-yl]-[1-(2-methoxy-ethyl)-piperidin-4-yl]-methanone]	> 90
O=C(c1n[nH]c2ccccc12)N1CCN(c2ccc(O)cc2)CC1 [I.8, [4-(4-Hydroxy-phenyl)-piperazin-1-yl]-(1H-indazol-3-yl)-methanone]	> 90
COCCOc1ccc2[nH]cc(C(=O)N3CCN(c4ccc(O)cc4)CC3)c2c1 [I.10, [4-(4-Hydroxy-phenyl)-piperazin-1-yl]-[5-(2-methoxy-ethoxy)-1H-indol-3-yl]-methanone]	> 90
CCCCOc1ccc(/C=C/C(=O)N2CCN(c3ccc(O)cc3)CC2)cc1 [I.12, 3-(4-Butoxy-phenyl)-1-[4-(4-hydroxy-phenyl)-piperazin-1-yl]-propenone]	> 90
CCCCOc1ccc(CCC(=O)N2CCN(c3ccc(O)cc3)CC2)cc1 [I.13, 3-(4-Butoxy-phenyl)-1-[4-(4-hydroxy-phenyl)-piperazin-1-yl]-propan-1-one]	> 90
CCCCOc1ccc2[nH]cc(C(=O)N3CCN(c4ccc(O)cc4)CC3)c2c1 [I.14, (5-Butoxy-1H-indol-3-yl)-[4-(4-hydroxy-phenyl)-piperazin-1-yl]-methanone]	> 90
O=C(c1cn(Cc2ccccc2)c2ccccc12)N1CCN(c2ccc(O)cc2)CC1 [I.15, (1-Benzyl-1H-indol-3-yl)-[4-(4-hydroxy-phenyl)-piperazin-1-yl]-methanone]	> 90
CC(=O)N[C@@H](Cc1ccccc1)C(=O)N1CCN(c2ccc(O)cc2)CC1 [I.16, N-{(1S)-1-Benzyl-2-[4-(4-hydroxy-phenyl)-piperazin-1-yl]-2-oxoethyl}-acetamide]	> 90
O=C(C(=O)N1CCN(c2ccc(O)cc2)CC1)c1ccccc1 [I.17, 1-[4-(4-hydroxyphenyl)-piperazin-1-yl]-2-phenyl-ethane-1,2-dione]	> 90
CCCCn1cc(C(=O)N2CCN(c3ccc(O)cc3)CC2)c2ccccc21 [I.18, (1-Butyl-1H-indol-3-yl)-[4-(4-hydroxy-phenyl)-piperazin-1-yl]-methanone]	> 90
CC(=O)N[C@@H](C(=O)N1CCN(c2ccc(O)cc2)CC1)c1ccccc1 [I.19, N-{(1R)-2-[4-(4-Hydroxy-phenyl)-piperazin-1-yl]-2-oxo-1-phenyl-ethyl}acet-amide]	> 90
O=C(c1cc(-c2ccccc2)nc(-c2ccccc2)c1)N1CCN(c2ccc(O)cc2)CC1 [I.20, (2,6-diphenyl-4-pyridyl)-[4-(4-hydroxyphenyl)piperazin-1-yl]methanone]	> 90
O=C(c1cc2ccccc2c2ccccc12)N1CCN(c2ccc(O)cc2)CC1 [I.22, [4-(4-Hydroxy-phenyl)-piperazin-1-yl]-phenanthren-9-yl-methanone]	> 90
O=C(CCc1ccc2ccccc2c1)N1CCN(c2ccc(O)cc2)CC1 [I.23, 1-[4-(4-Hydroxy-phenyl)-piperazin-1-yl]-3-naphthalen-2-yl-propan-1-one]	> 90
O=C(c1cnc2ccccc2c1)N1CCN(c2ccc(O)cc2)CC1 [I.24, [4-(4-Hydroxy-phenyl)-piperazin-1-yl]-quinolin-3-yl-methanone]	> 90
O=C(c1cccc2cc3ccccc3cc12)N1CCN(c2ccc(O)cc2)CC1 [I.25, Anthracen-1-yl-[4-(4-hydroxy-phenyl)-piperazin-1-yl]-methanone]	> 90
O=C(c1cccc2c1ccn2Cc1ccccc1)N1CCN(c2ccc(O)cc2)CC1 [I.26, (1-benzylindol-4-yl)-[4-(4-hydroxyphenyl)piperazin-1-yl]methanone]	> 90
O=C(c1cc(-c2ccccc2)cc(-c2ccccc2)c1)N1CCN(c2ccc(O)cc2)CC1 [I.27, (3,5-Diphenyl-phenyl)-[4-(4-hydroxy-phenyl)-piperazin-1-yl]methanone]	> 90
O=C(c1cccn2ccnc12)N1CCN(c2ccc(O)cc2)CC1 [I.29, [4-(4-Hydroxy-phenyl)-piperazin-1-yl]-imidazo[1,2-a]124yridine-8-yl-methanone]	> 90

Structure (SMILES)	inhibition at 10 µM [%]
O=C(c1cccc2[nH]ccc12)N1CCN(c2ccc(O)cc2)CC1 [I.30, [4-(4-Hydroxy-phenyl)-piperazin-1-yl]-(1H-indol-4-yl)-methanone]	> 90
O=C(c1cccn2c(-c3ccc(C(F)(F)F)cc3)cnc12)N1CCN(c2ccc(O)cc2)CC1 [I.31, [4-(4-hydroxy-phenyl)-piperazin-1-yl]-[3-(4-trifluoromethyl-phenyl)-imidazo[1,2-a]pyridin-8-yl]-methanone]	> 90
O=C(O)c1cc(N2CCN(C(=O)Cc3ccccc3)CC2)ccc1O [I.32, 2-hydroxy-5-(4-phenylacetyl-piperazin-1-yl)-benzoic acid]	70 to 89
O=C(c1cc(-c2ccccc2)nc(N2CCOCC2)c1)N1CCN(c2ccc(O)cc2)CC1 [I.33, [4-(4-Hydroxy-phenyl)-piperazin-1-yl]-(2-morpholino-6-phenyl-4-pyridyl)-methanone]	> 90
O=C(c1ccnc(-c2ccccc2)c1)N1CCN(c2ccc(O)cc2)CC1 [I.34, [4-(4-Hydroxy-phenyl)-piperazin-1-yl]-(2-phenyl-4-pyridyl)-methanone]	> 90
O=C(c1ccnc(N2CCOCC2)c1)N1CCN(c2ccc(O)cc2)CC1 [I.35, [4-(4-Hydroxy-phenyl)-piperazin-1-yl]-(2-morpholino-4-pyridyl)-methanone]	> 90
O=C(c1cc(Cl)nc(N2CCOCC2)c1)N1CCN(c2ccc(O)cc2)CC1 [I.36]	> 90
N#Cc1cc(N2CCN(C(=O)c3cc(-c4ccccc4)nc(-c4ccccc4)c3)CC2)ccc1O [I.37, 5-[4-(2,6-diphenylpyridine-4-carbonyl)piperazin-1-yl]-2-hydroxy-benzonitrile]	50 to 69
O=C(O)c1cc(N2CCN(C(=O)c3cc(-c4ccccc4)nc(-c4ccccc4)c3)CC2)ccc1O [I.38, 5-[4-(2,6-Diphenyl-pyridine-4-carbonyl)-piperazin-1-yl]-2-hydroxy-benzoic acid]	> 90
O=C(c1ccc(Cl)s1)N1CCN(c2ccc(O)cn2)CC1 [I.76, (5-Chloro-thiophen-2-yl)-[4-(5-hydroxy-pyridin-2-yl)-piperazin-1-yl]-methanone]	> 90
O=C(/C=C/c1ccc([N+](=O)[O-])cc1)N1CCN(c2ccc(O)cn2)CC1 [I.77, (E)-1-[4-(5-Hydroxy-pyridin-2-yl)-piperazin-1-yl]-3-(4-nitro-phenyl)-propenone]	> 90
O=C(/C=C/c1ccc(Cl)cc1)N1CCN(c2ccc(O)cn2)CC1 [I.78, (E)-3-(4-Chlorophenyl)-1-[4-(5-hydroxy-pyridin-2-yl)-piperazin-1-yl]-propenone]	> 90
Cc1cn(-c2cc(C(=O)N3CCN(c4ccc(O)cn4)CC3)cc(C(F)(F)F)c2)cn1 [I.81, [4-(5-Hydroxy-pyridin-2-yl)-piperazin-1-yl]-[3-(4-methyl-imidazol-1-yl)-5-trifluoro-methylphenyl]-methanone]	> 90
Cc1ccc(C(=O)N2CCN(c3ccc(O)cn3)CC2)cc1Nc1nccc(-c2cccnc2)n1 [I.85, [4-(5-hydroxy-pyridin-2-yl)-piperazin-1-yl]-[4-methyl-3-(4-pyridin-3-yl-pyrimidin-2-ylamino)-phenyl]-methanone]	> 90
O=C(c1nc2ccccc2[nH]1)N1CCN(c2ccc(O)cn2)CC1 [I.86, (1H-Benzo-imidazol-2-yl)-[4-(5-hydroxy-pyridin-2-yl)-piperazin-1-yl]-methanone]	> 90
O=C(c1ccc(Br)s1)N1CCN(c2ccc(O)cn2)CC1 [I.87, (5-Bromo-thiophen-2-yl)-[4-(5-hydroxy-pyridin-2-yl)-piperazin-1-yl]-methanone]	> 90
CN(CC(=O)N1CCN(c2ccc(O)cn2)CC1)S(=O)(=O)c1cccc2cccnc12 [I.89, quinoline-8-sulfonic acid {2-[4-(5-hydroxypyridin-2-yl)-piperazin-1-yl]-2-oxo-ethyl}-methylamide]	> 90
CC(C)Cc1ccc(CCC(=O)N2CCN(c3ccc(O)cn3)CC2)cc1 [I.90, 1-[4-(5-Hydroxy-pyridin-2-yl)-piperazin-1-yl]-3-(4-isobutyl-phenyl)-propan-1-one]	> 90
